Measured values taken from article PMC9143450, “Oxonitrogenated Derivatives of Eremophilans and Eudesmans: Antiproliferative and Anti-Trypanosoma cruzi Activity” (Molecules, 2022).

Experiments:
[1] = system: Trypanosoma cruzi epimastigotes (RA strain); assay: In vitro anti-Trypanosoma cruzi assay ((3H) thymidine uptake); assay type: cell-based; settings: for IC50: Trypanosoma cruzi, epimastigotes (RA strain), ± SD; for Selectivity Index on T. cruzi epimastigotes: CC50 splenocytes / IC50 epimastigotes
Procedure: Trypanosoma cruzi epimastigotes (RA strain, from discrete typing unit (DTU) VI) were grown in a biphasic medium. Cultures were maintained by weekly passages at 28 °C [18].
The growth inhibition of T. cruzi epimastigotes was evaluated by a (^3H) thymidine uptake assay as previously described. Natural sesquiterpenes and derivatives were evaluated at concentrations ranging from 1.5 to 50 µg/mL. Benznidazole (Active Pharmaceutical Ingredient) was used as positive control (Elea). The percentage of inhibition was calculated as 100 = {((cpm of treated parasites)/(cpm of untreated parasites)) × 100}.
Figure 5 Effect of the natural sesquiterpene tessaric acid (1), ilicic acid (2), and ilicic alcohol (3) and their derivatives on T. cruzi. Epimastigotes (RA strain) were cultured in the presence of the compounds (50–1.5 µg/mL). Determinations were performed by triplicate. The results are expressed as the mean ± SD. (A) Effect of tessaric acid and derivatives on epimastigotes; (B) Effect of ilicic acid and derivatives on epimastigotes; (C) Effect of ilicic alcohol and derivatives on epimastigotes.

WiDr = assay: Antiproliferative SRB assay (NCI protocol), WiDr; assay type: cell-based, human; settings: for Selectivity index (SI) on tumor cells: CC50 splenocytes / GI50 WiDr; for GI50: WiDr (colon), 48 h drug exposure, SRB, ± SD
Procedure: (§1) In vitro antiproliferative activity was evaluated using the protocol of the National Cancer Institute (NCI) after 48 h of drug exposure using the sulforhodamine B (SRB) assay.
(§2) The following human solid tumor cell lines were used in this study: HBL-100 (breast), HeLa (cervix), SW1573 (non-small cell lung), T-47D (breast), A549 (lung), and WiDr (colon). These cell lines were a kind gift from Prof. G. J. Peters (VU Medical Center, Amsterdam, The Netherlands). Cells were maintained in 25 cm^2 culture flasks in RPMI 1640 supplemented with 5% heat-inactivated fetal calf serum and 2 mM L-glutamine in a 37 °C, 5% CO2, 95% humidified air incubator. Exponentially growing cells were trypsinized and resuspended in antibiotic containing medium (100 units penicillin G and 0.1 mg of streptomycin per mL). Single cell suspensions displaying > 97% viability by trypan blue dye exclusion test were subsequently counted. After counting, dilutions were made to give the appropriate cell densities for inoculation onto 96-well microtiter plates. Cells were inoculated in a volume of 100 μL per well at densities of 5000 (WiDr and T-47D), and 2500 (A549, HeLa, SW1573 and HBL-100) cells per well, based on their doubling times.
(§3) Chemosensitivity tests were performed using the SRB assay of the NCI with slight modifications. Briefly, pure compounds were initially dissolved in DMSO at 400 times the desired final maximum test concentration. Control cells were exposed to an equivalent concentration of DMSO (0.25% v/v, negative control). Each agent was tested in triplicates at different dilutions in the range 1–100 μM. Drug treatment started on day 1 after plating. Drug incubation periods were 48 h, after which cells were precipitated with 25 μL of ice-cold 50% (w/v) trichloroacetic acid and fixed for 60 min at 4 °C. Then, the SRB assay was performed. The optical density (OD) of each well was measured at 530 nm, using BioTek’s PowerWave XS Absorbance Microplate Reader. Values were corrected for background OD from wells containing only culture medium. The percentage growth (PG) was calculated with respect to untreated control cells (C) at each level of drug concentrations based on the difference in OD at the start time (T0) and at the end of drug exposure (T), according to NCI formulas. Therefore, if T is greater than or equal to T0, the calculation is 100 × ((T − T0)/(C − T0)). If T is lower than T0, denoting cell death, the calculation is 100 × ((T − T0)/(T0)). The effect is defined as the growth percentage, where 50% growth inhibition (GI50) represents the concentration at which PG is +50. Based on these calculations, a PG value of 0 corresponds to the number of cells present at the beginning of drug exposure, while negative PG values denote net cell death.

HeLa = assay: Antiproliferative SRB assay (NCI protocol), HeLa; assay type: cell-based, human; settings: for Selectivity index (SI) on tumor cells: CC50 splenocytes / GI50 HeLa; for GI50: HeLa (cervix), 48 h drug exposure, SRB, ± SD
Procedure: as §1, §2, §3

SW1573 = assay: Antiproliferative SRB assay (NCI protocol), SW1573; assay type: cell-based, human; settings: for Selectivity index (SI) on tumor cells: CC50 splenocytes / GI50 SW1573; for GI50: SW1573 (non-small cell lung), 48 h drug exposure, SRB, ± SD
Procedure: as §1, §2, §3

[2] = system: HeLa, T-47D, WiDr, A549, HBL-100, and SW1573 cell lines; assay: Antiproliferative SRB assay, whole panel of human solid tumor cell lines; assay type: cell-based; settings: Homo sapiens; minimal to maximal GI50 across the cell lines tested, 48 h, SRB; read-out: GI50 values, range over all cell lines tested
Procedure: as §1, §2, §3

T-47D = assay: Antiproliferative SRB assay (NCI protocol), T-47D; assay type: cell-based, human; settings: for Selectivity index (SI) on tumor cells: CC50 splenocytes / GI50 T-47D; for GI50: T-47D (breast), 48 h drug exposure, SRB, ± SD
Procedure: as §1, §2, §3

A549 = assay: Antiproliferative SRB assay (NCI protocol), A549; assay type: cell-based, human; settings: for Selectivity index (SI) on tumor cells: CC50 splenocytes / GI50 A549; for GI50: A549 (lung), 48 h drug exposure, SRB, ± SD
Procedure: as §1, §2, §3

HBL-100 = assay: Antiproliferative SRB assay (NCI protocol), HBL-100; assay type: cell-based, human; settings: for Selectivity index (SI) on tumor cells: CC50 splenocytes / GI50 HBL-100; for GI50: HBL-100 (breast), 48 h drug exposure, SRB, ± SD
Procedure: as §1, §2, §3

[3] = Cytotoxicity on primary cell culture (flow cytometry, PI); assay type: cell-based; settings: Balb/c, mouse, primary splenocytes (spleen cells), ± SD, read-out: Cytotoxic activity on spleen cells (CC50)
Procedure: The cytotoxicity of the natural sesquiterpenes (1–3) and derivatives (4–19) was determined on primary cell cultures (splenocytes obtained from Balb/c mouse). […] Derivatives of tessaric acid have shown an improvement in CC50 values in comparison with the natural sesquiterpene 1. […] All the derivatives synthesized from alcohol ilicic (compounds 10–19) were more toxic to mammalian cells than the natural compound (3).
The cytotoxicity of the compounds was evaluated on splenocytes obtained from Balb/c mouse (1.5 × 10^5) and incubated with different drug dilutions (5–200 μg/mL) as previously described. Cell death was determined by flow cytometry using a BD FACSaria II cytometer. Cells incubated only with drug vehicle were used as 100% viability control, and death percentage was calculated according to the following formula: Death%=1−(%PI^−cells)drug−treated/(%PI^−cells)100% viability control × 100
The concentration capable of causing 50% cell death (CC50) was determined using a non-linear regression approach.

Row | Structure (SMILES) | IC50 [1] [µM] | Selectivity index (SI) on tumor cells (WiDr) | GI50 (WiDr; Homo sapiens) [µM] | Selectivity index (SI) on tumor cells (HeLa) | GI50 (HeLa; Homo sapiens) [µM] | Selectivity index (SI) on tumor cells (SW1573) | GI50 (SW1573; Homo sapiens) [µM] | GI50 [2] [µM] | Selectivity index (SI) on tumor cells (T-47D) | GI50 (T-47D; Homo sapiens, T47D) [µM] | Selectivity index (SI) on tumor cells (A549) | GI50 (A549; Homo sapiens) [µM] | Selectivity index (SI) on tumor cells (HBL-100) | GI50 (HBL-100; Homo sapiens) [µM] | CC50 [3] [µM] | Selectivity Index on T. cruzi epimastigotes [1] | also measured
1 | C=C(C(=O)N(c1ccccc1)C(C)(C)C(=O)NCc1ccccc1)[C@@H]1CCC2=CC(=O)C[C@H](C)[C@@]2(C)C1 [Compound 6] | > 100 | 2.4 | 44 | 2.9 | 36 | 2.6 | 40 | 17 to 64 | 3.5 | 30 | 3.1 | 33 | 1.7 | 61 | 104 | – | –
2 | N.N.[Cl][Pt][Cl] [Cisplatin, reference compound] | – | – | – | – | – | – | – | – | – | – | – | – | – | – | – | – | GI50 (WiDr): 23 µM; GI50 (HeLa): 1.8 µM; GI50 (SW1573): 2.7 µM; GI50 (T-47D): 17 µM; GI50 (A549): 4.9 µM; GI50 (HBL-100): 1.9 µM
3 | C=C(C(=O)N(Cc1ccccc1)C(C)(C)C(=O)NC(C)(C)C)C1CCC2(C)CCCC(C)(O)C2C1 (stereo not shown) [Compound 11] | 26.1 | 11.5 | 29 | 17.6 | 19 | 10.1 | 33 | 17 to 64 | 14.5 | 23 | 16.7 | 20 | 10.1 | 33 | 334 | 12.6 | –
4 | C=C(C(=O)N(Cc1ccccc1)C(C)(C)C(=O)NC(C)(C)C)[C@@H]1CCC2=CC(=O)C[C@H](C)[C@@]2(C)C1 [Compound 5] | 9.3 | – | > 100 | – | > 100 | – | > 100 | – | – | > 100 | – | > 100 | – | > 100 | 44.7 | 4.8 | –
5 | C=C(C(=O)N(c1ccccc1)C(C)(C)C(=O)NC1CCCCC1)[C@@H]1CCC2=CC(=O)C[C@H](C)[C@@]2(C)C1 [Compound 8] | 63.2 | 0.7 | 30 | 0.6 | 31 | 0.7 | 30 | 17 to 64 | 0.7 | 27 | 0.7 | 27 | 0.5 | 37 | 19.8 | 0.3 | –
6 | C=C(Cn1cc(Cc2ccccc2)nn1)[C@@H]1CC[C@@]2(C)CCC[C@@](C)(O)C2C1 (stereo partly shown) [Compound 18] | 30.2 | 1.6 | 39 | – | > 100 | – | – | – | 1.4 | 44 | – | – | – | – | 62.2 | 2.1 | –
